From ChEMBL document CHEMBL4041510, “Design, synthesis, and biological evaluation of structurally modified isoindolinone and quinazolinone derivatives as hedgehog pathway inhibitors” (Eur J Med Chem, 2017)
Active and inactive are the calls of the source. The rule behind the calls is not given here.

What was measured:
[1] = Inhibition of hedgehog signaling pathway in mouse NIH/3T3 cells measured after 24 hrs by Gli-dual luciferase reporter gene assay; assay type: cell-based; details: NIH3T3, 24 h
NIH3T3 = test: Cytotoxicity against mouse NIH/3T3 cells assessed as cell viability by MTS assay; assay type: cell-based
[2] = Metabolic stability in human liver microsomes assessed as compound remaining at 1 uM preincubated for 5 mins followed by NADPH addition measured after 30 mins by LC-ESI/MS/MS analysis relative to control; assay type: ADME, microsome; details: read-out: Stability
[3] = Metabolic stability in human liver microsomes assessed as compound remaining at 1 uM in absence of NADPH incubated for 5 mins by LC-ESI/MS/MS analysis relative to control; assay type: ADME, microsome; details: read-out: Stability
[4] = Metabolic stability in human liver microsomes assessed as compound remaining at 1 uM preincubated for 5 mins followed by UDPGA addition measured after 30 mins by LC-ESI/MS/MS analysis relative to control; assay type: ADME, microsome; details: read-out: Stability
[5] = Metabolic stability in human liver microsomes assessed as compound remaining at 1 uM in absence of UDPGA incubated for 5 mins by LC-ESI/MS/MS analysis relative to control; assay type: ADME, microsome; details: read-out: Stability
Mus musculus [6] = species: Mus musculus; test: Inhibition of hedgehog signaling pathway in mouse NIH/3T3 cells assessed as inhibition of hedgehog-induced Smo-EGFP ciliary translocation by DAPI staining based confocal microscopic analysis; assay type: cell-based
Mus musculus [7] = species: Mus musculus; test: Inhibition of hedgehog signaling pathway expressed in mouse NIH/3T3 cells assessed as inhibition of hedgehog-induced Gli-2 accumulation at tip of primary cilia by DAPI staining based confocal microscopic analysis; assay type: cell-based
[8] = Inhibition of hedgehog signaling pathway in mouse NIH/3T3 cells expressing wild type Smo assessed as reduction in Gli mRNA expression by RT-PCR method; assay type: cell-based; details: NIH3T3
[9] = Inhibition of hedgehog signaling pathway in mouse NIH/3T3 cells harboring Smo D477H mutant assessed as reduction in Gli mRNA expression by RT-PCR method; assay type: cell-based; details: NIH3T3
Mus musculus [10] = species: Mus musculus; test: Selectivity ratio of IC50 for hedgehog signaling pathway in mouse NIH/3T3 cells harboring Smo D477H mutant to IC50 for hedgehog signaling pathway in mouse NIH/3T3 cells expressing wild type Smo; assay type: cell-based
Mus musculus [11] = species: Mus musculus; test: Inhibition of hedgehog signaling pathway in Ptch deficient MEF assessed as downregulation of Gli-1 expression by Immunoblot analysis

Structure (SMILES) | IC50 [1] [nM] | Activity (NIH3T3) [µM] | other results
Cc1c(C(=O)Nc2ccc(N3C[C@@H](C)O[C@@H](C)C3)nc2)cccc1-c1ccc(OC(F)(F)F)cc1 [SONIDEGIB] | 6 | > 20 | remaining at 0.5 h, 1 µM [2]: 68%; remaining at 5 min, 1 µM [3]: 99.7%; remaining at 0.5 h, 1 µM [4]: 88.4%; remaining at 5 min, 1 µM [5]: 89.5%; inhibition (Mus musculus [6]): Active; inhibition (Mus musculus [7]): Active; IC50 [8]: 4.4 nM; IC50 [9]: 22.7 nM; Ratio IC50 (Mus musculus [10]): 5.16
O=c1c2cccc(-c3ccc(OC(F)(F)F)cc3)c2ncn1CCCn1ccnc1 | 5280 | > 20 | 
C[C@@H]1CN(c2ccc(-n3cnc4c(-c5cccc6ccccc56)cccc4c3=O)cn2)C[C@H](C)O1 | 439 | > 20 | 
O=c1c2cccc(-c3ccc(OC(F)(F)F)cc3)c2ncn1CCN1CCOCC1 | 6600 | > 20 | 
C[C@@H]1CN(c2ccc(-n3cnc4c(-c5ccc(OC(F)(F)F)cc5)cccc4c3=O)nc2)C[C@H](C)O1 | 196 | > 20 | 
Cc1ccc(-c2cccc3c(=O)n(-c4ccc(N5C[C@@H](C)O[C@@H](C)C5)nc4)cnc23)cc1 | 305 | > 20 | 
CC1CCN(c2ccc(-n3cnc4c(-c5ccc(OC(F)(F)F)cc5)cccc4c3=O)cn2)CC1 | 847 | > 20 | 
C[C@@H]1CN(c2ccc(N3Cc4c(cccc4-c4ccc(F)cc4F)C3=O)cn2)C[C@H](C)O1 | 1710 | > 20 | 
CS(=O)(=O)c1ccc(C(=O)Nc2ccc(Cl)c(-c3ccccn3)c2)c(Cl)c1 [VISMODEGIB] | 5 |  | inhibition (Mus musculus [6]): Active; inhibition (Mus musculus [7]): Active; IC50 [8]: 14.4 nM; IC50 [9]: 1200 nM; Ratio IC50 (Mus musculus [10]): 82.7
CC1CCN(c2cc(-n3cnc4c(-c5ccc(OC(F)(F)F)cc5)cccc4c3=O)ncn2)CC1 | 7700 | > 20 | 
O=c1c2cccc(-c3ccc(OC(F)(F)F)cc3)c2ncn1-c1ccc(N2CCOCC2)nc1 | 5410 | > 20 | 
C[C@@H]1CN(c2cc(-n3cnc4c(-c5ccc(OC(F)(F)F)cc5)cccc4c3=O)ncn2)C[C@H](C)O1 | 44200 | > 20 | 
C[C@@H]1CN(c2ccc(-n3cnc4c(Cl)cccc4c3=O)cn2)C[C@H](C)O1 | 7490 | > 20 | 
O=c1c2cccc(-c3ccc(OC(F)(F)F)cc3)c2ncn1-c1ccc(N2CCOCC2)cc1 | 4520 | > 20 | 
C[C@@H]1CN(c2ccc(-n3cnc4c(-c5ccc(S(C)(=O)=O)cc5)cccc4c3=O)cn2)C[C@H](C)O1 | 430 | > 20 | 
O=c1c2cccc(Cl)c2ncn1-c1ccc(N2CCOCC2)nc1 | 15300 | > 20 | 
C[C@@H]1CN(c2ccc(N3Cc4c(cccc4-c4ccc(OC(F)(F)F)cc4)C3=O)cn2)C[C@H](C)O1 | 1800 | > 20 | 
C[C@@H]1CN(c2cc(-n3cnc4c(Cl)cccc4c3=O)ncn2)C[C@H](C)O1 | 1240 | > 20 | 
C[C@@H]1CN(c2ccc(-n3cnc4c(-c5ccccc5)cccc4c3=O)cn2)C[C@H](C)O1 | 38 | > 20 | inhibition (Mus musculus [11]): Active; remaining at 0.5 h, 1 µM [2]: 68.2%; remaining at 5 min, 1 µM [3]: 83.7%; remaining at 0.5 h, 1 µM [4]: 91%; remaining at 5 min, 1 µM [5]: 93.1%; inhibition (Mus musculus [6]): Active; inhibition (Mus musculus [7]): Active; IC50 [8]: 257 nM; IC50 [9]: 91.1 nM; Ratio IC50 (Mus musculus [10]): 0.355
O=c1c2cccc(Cl)c2ncn1-c1ccc(N2CCOCC2)cc1 | > 20000 | > 20 | 
COc1ccc(-c2cccc3c(=O)n(-c4ccc(N5C[C@@H](C)O[C@@H](C)C5)nc4)cnc23)cc1 | 196 | > 20 | 
C[C@@H]1CN(c2ccc(-n3cnc4c(-c5ccc(F)cc5)cccc4c3=O)cn2)C[C@H](C)O1 | 118 | > 20 | inhibition (Mus musculus [11]): Active; remaining at 0.5 h, 1 µM [2]: 76.3%; remaining at 5 min, 1 µM [3]: 91.3%; remaining at 0.5 h, 1 µM [4]: 83.5%; remaining at 5 min, 1 µM [5]: 83.2%; inhibition (Mus musculus [6]): Active; inhibition (Mus musculus [7]): Active; IC50 [8]: 114 nM; IC50 [9]: 246 nM; Ratio IC50 (Mus musculus [10]): 2.16
O=c1c2cccc(-c3ccccc3)c2ncn1-c1ccc(N2CCOCC2)cc1 | 132 | > 20 | 
C[C@@H]1CN(c2ccc(-n3cnc4c(-c5ccc(OC(F)(F)F)cc5)cccc4c3=O)cn2)C[C@H](C)O1 | 159 | > 20 | 
O=c1c2cccc(Cl)c2ncn1-c1ccc(F)cc1 | 269 | > 20 | 
COc1cccc(-c2cccc3c(=O)n(-c4ccc(N5CCOCC5)cc4)cnc23)c1 | 433 | > 20 | 
O=C1CC2(CCCC2)CC(=O)N1CCCCN1CCN(c2ncccn2)CC1 [BUSPIRONE] |  |  | remaining at 0.5 h, 1 µM [2]: 5.17%; remaining at 5 min, 1 µM [3]: 96.7%
C[C@@H]1CN(c2ccc(N3Cc4c(cccc4-c4cccnc4)C3=O)cn2)C[C@H](C)O1 | 7690 | > 20 | 
C[C@@H]1CN(c2cc(N3Cc4c(cccc4-c4ccc(OC(F)(F)F)cc4)C3=O)ncn2)C[C@H](C)O1 | 1140 | > 20 | 
Cc1cc(=O)oc2cc(O)ccc12 [HYMECROMONE] |  |  | remaining at 0.5 h, 1 µM [4]: 0.46%; remaining at 5 min, 1 µM [5]: 92.2%
